Patent publication US8992960B2, “Multifunctional silica-based compositions and gels, methods of making them, and methods of using them” (University of Florida Research Foundation, Inc., priority 2010, dated 2015)

Experiment: Reactivity of DMDS towards Cu(II) ions (odor over time)
Format: physicochemical
Conditions: in CuSiNG; preliminary results, characteristic odor over time
Experimental: Unlike SiNG, the physico-chemical environment of DMDS in CuSiNG is expected to be somewhat different due to presence of Cu (II) ions. […] However, the DMDS electron-rich sulfur atom has the ability to weakly interact with electron-deficient Cu(II) ion. This could further facilitate adsorption of DMDS into CuSiNG. Thorough FT-IR studies are performed to understand the nature of intermolecular interactions that exist between DMDS and SiNG. In addition, thermogravimetric analysis (TGA), calorimetry and QCM sensing studies to obtain DMDS loading/release characteristics (isotherms) against CuSiNG and SiNG materials will be used to determine the role of Cu II ions in DMDS loading. A comparative isotherm data analysis along with FT-IR analysis will reveal the effect of Cu in DMDS loading/release process.

CSSC [DMDS, dimethyl disulfide]
reactivity to Cu(II) ions: non-reactive to Cu(II) ions
